Test results published in PubChem BioAssay AID651601 (Sanford-Burnham Center for Chemical Genomics, 2012).

Experiments:
Assay in all cases: antagonist selectivity across CCR6, CXCR5 and CXCR6 – cell-based, CHO-K1 PathHunter beta-arrestin, luminescence, selectivity assay for CXCR6 antagonist project, profiling panel (AID 651601)
Details in all cases: antagonist mode
[1] = target: C-C chemokine receptor type 6 (Homo sapiens) (UniProt P51684)
[2] = target: C-X-C chemokine receptor type 6 (Homo sapiens) (UniProt O00574)
C-X-C chemokine receptor type 6 (Homo sapiens), sequence (O00574 whole entry, looked up): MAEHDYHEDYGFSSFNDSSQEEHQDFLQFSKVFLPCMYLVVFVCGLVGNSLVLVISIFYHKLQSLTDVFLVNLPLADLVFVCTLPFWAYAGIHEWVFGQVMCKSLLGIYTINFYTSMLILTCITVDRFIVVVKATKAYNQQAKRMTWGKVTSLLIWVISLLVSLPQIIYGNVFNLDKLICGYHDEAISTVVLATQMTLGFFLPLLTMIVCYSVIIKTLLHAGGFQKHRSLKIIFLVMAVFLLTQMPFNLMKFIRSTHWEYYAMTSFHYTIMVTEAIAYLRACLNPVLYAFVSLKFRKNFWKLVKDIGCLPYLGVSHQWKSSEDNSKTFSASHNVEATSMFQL

[3] = target: C-X-C chemokine receptor type 5 (Homo sapiens) (UniProt P32302)
C-X-C chemokine receptor type 5 (Homo sapiens), sequence (P32302 whole entry, looked up): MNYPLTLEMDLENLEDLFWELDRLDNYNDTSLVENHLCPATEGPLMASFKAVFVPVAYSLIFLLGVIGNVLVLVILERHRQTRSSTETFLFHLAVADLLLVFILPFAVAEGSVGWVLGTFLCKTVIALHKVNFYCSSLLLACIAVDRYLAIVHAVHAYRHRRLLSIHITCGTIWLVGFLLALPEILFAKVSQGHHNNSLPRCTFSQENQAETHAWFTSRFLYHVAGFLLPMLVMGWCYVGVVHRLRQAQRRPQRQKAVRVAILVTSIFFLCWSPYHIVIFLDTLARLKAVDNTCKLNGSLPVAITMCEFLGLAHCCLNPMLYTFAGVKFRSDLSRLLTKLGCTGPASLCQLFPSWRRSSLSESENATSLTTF

[4] = CCR6, mean of runs, mean IC50 across replicates
[5] = CXCR6, mean of runs, mean IC50 across replicates
[6] = CXCR5, mean of runs, mean IC50 across replicates

C-C chemokine receptor type 6 (Homo sapiens), sequence (P51684 whole entry, looked up): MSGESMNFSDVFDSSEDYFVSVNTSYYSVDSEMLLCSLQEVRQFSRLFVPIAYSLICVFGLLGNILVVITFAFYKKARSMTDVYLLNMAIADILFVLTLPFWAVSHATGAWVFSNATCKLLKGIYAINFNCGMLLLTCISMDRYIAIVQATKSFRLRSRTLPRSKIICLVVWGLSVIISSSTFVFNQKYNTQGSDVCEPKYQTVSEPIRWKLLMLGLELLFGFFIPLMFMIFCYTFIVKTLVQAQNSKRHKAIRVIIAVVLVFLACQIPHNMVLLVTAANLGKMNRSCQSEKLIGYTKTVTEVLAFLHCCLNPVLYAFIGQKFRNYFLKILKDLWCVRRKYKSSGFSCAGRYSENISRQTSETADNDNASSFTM

SMILES	IC50 [1, 4] [µM]	IC50 ([1]; CCR6, run 1) [µM]	IC50 ([1]; CCR6, run 2) [µM]	IC50 ([1]; CCR6, run 3) [µM]	IC50 ([1]; CCR6, run 4) [µM]	IC50 [2, 5] [µM]	IC50 ([2]; CXCR6, run 1) [µM]	IC50 ([2]; CXCR6, run 2) [µM]	IC50 ([2]; CXCR6, run 3) [µM]	IC50 ([2]; CXCR6, run 4) [µM]	IC50 [3, 6] [µM]	IC50 ([3]; CXCR5, run 1) [µM]	IC50 ([3]; CXCR5, run 2) [µM]
O=C(CN1C2CCCC1CC(NC(=O)c1ccccc1)C2)Nc1ccccc1C(F)(F)F (stereo not drawn)	> 80	> 80	> 80	> 80	> 80	> 80	> 80	> 80	> 80	> 80	> 66.6	> 66.6	> 66.6
COc1cccc(C(=O)NC2CC3CCCC(C2)N3CC(=O)Nc2ccc(N(C)C)cc2)c1 (stereo not drawn)	> 80	> 80	> 80	> 80	> 80	> 80	> 80	> 80	> 80	> 80	> 66.6	> 66.6	> 66.6
O=C(CN1C2CCCC1CC(NC(=O)c1ccccc1)C2)Nc1ccccc1 (stereo not drawn)	> 80	> 80	> 80	> 80	> 80	> 80	> 80	> 80	> 80	> 80	> 66.6	> 66.6	> 66.6

Continued, values first:

IC50 [1, 4] [µM]	IC50 ([1]; CCR6, run 1) [µM]	IC50 ([1]; CCR6, run 2) [µM]	IC50 ([1]; CCR6, run 3) [µM]	IC50 ([1]; CCR6, run 4) [µM]	IC50 [2, 5] [µM]	IC50 ([2]; CXCR6, run 1) [µM]	IC50 ([2]; CXCR6, run 2) [µM]	IC50 ([2]; CXCR6, run 3) [µM]	IC50 ([2]; CXCR6, run 4) [µM]	IC50 [3, 6] [µM]	IC50 ([3]; CXCR5, run 1) [µM]	IC50 ([3]; CXCR5, run 2) [µM]	SMILES
> 80	> 80	> 80	> 80	> 80	14.3	4.79	5.96	5.86	40.6	> 66.6	> 66.6	> 66.6	COc1cc(C(=O)NC2CC3CCCC(C2)N3CC(=O)Nc2ccccc2)cc(OC)c1OC (stereo not drawn)
> 80	> 80	> 80	> 80	> 80	> 80	> 80	> 80	> 80	> 80	> 66.6	> 66.6	> 66.6	COc1cccc(C(=O)NC2CC3CCCC(C2)N3CC(=O)Nc2ccccc2C(F)(F)F)c1 (stereo not drawn)
> 80	> 80	> 80	> 80	> 80	> 80	> 80	> 80	> 80	> 80	> 66.6	> 66.6	> 66.6	CN(C)c1ccc(NC(=O)CN2C3CCCC2CC(NC(=O)c2ccccc2)C3)cc1 (stereo not drawn)
